Laboratory results from patent US5776970A, “Tryptophan derivatives as protein tyrosine kinase blockers and their use in the treatment of neoplastic diseases” (Yeda Research and Development Co. Ltd., priority 1994, dated 1998).

Tests used:
rat adipocytes = assay: permeability into cell interiors (intact cell system, lipogenesis); type: cell-based; conditions: graded in words
Protocol: Rat adipocytes were prepared essentially by the method of Rodbell, 1964. The fat pads of three rats were cut into small pieces with scissors and digested in 3 ml of Krebs-Ringer-Bicarbonate (KRB)-buffer containing 0.7% bovine serum albumin (BSA) (pH 7.4) with collagenase (1 mg/ml). The digestion was performed in a 25 ml flexible plastic bottle under an atmosphere of carbogen (95% O2, 5% CO2) for 40 min at 37° C. with vigorous shaking. Five ml of buffer was then added, and the cells were squeezed through a mesh screen. The cells were then allowed to stand for several minutes (in a 15 ml plastic test tube at room temperature, floating) and the buffer underneath was removed. This procedure (suspension, floating and removal of buffer underneath) was repeated three times. For [^14 C-U]glucose incorporation (lipogenesis), the fat cell suspensions (3×10^5 cells/ml) were divided into plastic vials (0.5 ml per vial) and incubated for 60 min at 37° C. under an atmosphere of 95% O2, 5% CO2, with 0.2 mM [U-^14 C]glucose, in either the presence or absence of insulin (100 ng/ml) and the indicated concentrations in FIG. 2 of CBZ-DNPS-TRP-TAU. The reaction was terminated by adding toluene-based scintillation fluid (1.0 ml per vial) and the extracted lipids were counted (Shechter and Karlish, 1980). Fat cell suspensions were pre-incubated for 20 min at 37° C. with increasing concentrations of the inhibitors. Results are expressed in FIG. 2 as the percent of maximal stimulation at the indicated concentrations of inhibitors. In all experiments insulin-stimulated lipogenesis was 4- to 5-fold higher than basal; basal ~2000 cpm per 3×10^5 cells/h; Vinsulin 8000-10,000 cpm per 3×10^5 cells/h.
(§1) Various derivatives according to the invention in which R^1 is benzyloxycarbonyl (CBZ) or t-butoxycarbonyl (t-Boc), R^2 is --SO3 H or --PO3 H, n is 1,2 or 3, and R^3 is H, 2-nitrophenylthio (NPS) or 2,4-dinitrophenylthio (DNPS) were prepared and examined in cell-free and intact cell systems. The cell-free assay is PolyGlu4 Tyr phosphorylation by partially purified insulin receptor as described in Example 3. The assay in intact cells (namely, lipogenesis) was carried out as described in Example 4.

[1] = target: T1, insulin receptor tyrosine kinase (InsRTK) (Rattus norvegicus, UniProt P15127); assay: PolyGlu4 Tyr phosphorylation by partially purified (wheat-germ-agglutinin purified) rat liver insulin receptor, cell-free; type: biochemical; set-up: wheat-germ-agglutinin purified rat liver insulin receptor; from tissue; host or cells: rat liver (wheat-germ-agglutinin purified); conditions: for Relative cell-free potency in inhibiting InsRTK: CBZ-DNPS-TRP-Taurine 100
Protocol: An assay of PolyGlu4 Tyr phosphorylation by partially purified insulin receptor was run for 30 min at 22° C. in 60 μl of 50 mM Hepes (pH 7.4)-0.1% Triton X-100 containing wheat-germ-agglutinin purified rat liver insulin receptor (1 μg protein), MgCl2 25 mM; MnCl2, 1 mM, ATP 17 μM, insulin 0.1 μM, PolyGlu4 Tyr, 0.17 mg/ml and the indicated concentrations in FIG. 1 of CBZ-DNPS-TRP-TAU. Phosphotyrosine content in PolyGlu4 Tyr was determined by a radioimmunoassay procedure (Shisheva et al., 1991). […] The inhibitory potency of other derivatives of formula I on InsRTK-catalyzed PolyGlu4 Tyr phosphorylation in cell-free experiments was determined. […] For comparison, the IC50 values for AC-TRP-TAU and L-tryptophan are 5 mM and >30 mM, respectively.
as §1
Target sequence in this assay (P15127 764-1383 limits assumed): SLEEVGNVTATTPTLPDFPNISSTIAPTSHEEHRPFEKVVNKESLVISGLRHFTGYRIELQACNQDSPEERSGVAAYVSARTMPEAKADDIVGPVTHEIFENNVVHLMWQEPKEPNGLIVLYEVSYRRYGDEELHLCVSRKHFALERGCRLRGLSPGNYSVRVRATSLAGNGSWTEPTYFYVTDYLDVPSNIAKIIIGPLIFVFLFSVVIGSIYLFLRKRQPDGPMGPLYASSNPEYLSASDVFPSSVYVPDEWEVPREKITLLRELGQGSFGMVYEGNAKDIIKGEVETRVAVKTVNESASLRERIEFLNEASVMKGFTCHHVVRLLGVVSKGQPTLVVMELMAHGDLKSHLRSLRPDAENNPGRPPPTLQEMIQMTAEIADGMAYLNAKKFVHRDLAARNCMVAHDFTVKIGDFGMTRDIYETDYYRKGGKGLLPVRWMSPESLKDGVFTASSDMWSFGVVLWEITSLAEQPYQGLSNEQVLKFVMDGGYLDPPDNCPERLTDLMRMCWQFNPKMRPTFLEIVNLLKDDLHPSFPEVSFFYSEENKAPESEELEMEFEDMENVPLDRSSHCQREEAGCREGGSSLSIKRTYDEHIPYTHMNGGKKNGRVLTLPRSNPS
Target sequence in this assay (P15127 27-759 partner limits assumed): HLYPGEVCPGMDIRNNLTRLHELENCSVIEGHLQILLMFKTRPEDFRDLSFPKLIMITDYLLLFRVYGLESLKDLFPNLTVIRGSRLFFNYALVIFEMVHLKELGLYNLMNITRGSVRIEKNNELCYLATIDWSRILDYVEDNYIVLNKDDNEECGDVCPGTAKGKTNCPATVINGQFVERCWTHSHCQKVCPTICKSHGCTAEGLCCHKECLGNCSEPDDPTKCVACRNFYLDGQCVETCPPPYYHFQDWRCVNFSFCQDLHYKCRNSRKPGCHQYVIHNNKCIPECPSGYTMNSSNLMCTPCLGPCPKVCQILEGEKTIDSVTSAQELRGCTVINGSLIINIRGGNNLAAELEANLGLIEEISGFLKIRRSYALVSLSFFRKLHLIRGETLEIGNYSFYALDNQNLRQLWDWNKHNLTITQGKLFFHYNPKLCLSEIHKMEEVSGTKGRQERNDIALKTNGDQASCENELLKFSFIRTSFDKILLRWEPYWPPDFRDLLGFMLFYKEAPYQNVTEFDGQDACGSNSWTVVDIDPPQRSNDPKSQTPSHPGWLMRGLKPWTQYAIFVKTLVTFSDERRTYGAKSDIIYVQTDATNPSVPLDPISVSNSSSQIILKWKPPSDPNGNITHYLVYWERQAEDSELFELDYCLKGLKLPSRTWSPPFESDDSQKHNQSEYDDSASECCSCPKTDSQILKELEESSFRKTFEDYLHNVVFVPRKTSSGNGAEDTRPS

[2] = target: T1, insulin receptor tyrosine kinase (InsRTK); assay: inactivation of InsRTK by affinity reagent; type: biochemical; conditions: covalent affinity reagent
From the text: Thus, to design and synthesize a low molecular weight blocker of InsRTK able to permeate into cell interiors, we first searched for an affinity reagent that would covalently bind and inactivate the InsRTK at low concentrations. […] The complementary hydrophilic domain of the InsRTK contains a lysine moiety that reacts covalently with the active ester and is likely to participate in substrate binding or catalysis. Equipped with this information we have synthesized a family of competitive inhibitors.
Target sequence in this assay (P15127 27-1383): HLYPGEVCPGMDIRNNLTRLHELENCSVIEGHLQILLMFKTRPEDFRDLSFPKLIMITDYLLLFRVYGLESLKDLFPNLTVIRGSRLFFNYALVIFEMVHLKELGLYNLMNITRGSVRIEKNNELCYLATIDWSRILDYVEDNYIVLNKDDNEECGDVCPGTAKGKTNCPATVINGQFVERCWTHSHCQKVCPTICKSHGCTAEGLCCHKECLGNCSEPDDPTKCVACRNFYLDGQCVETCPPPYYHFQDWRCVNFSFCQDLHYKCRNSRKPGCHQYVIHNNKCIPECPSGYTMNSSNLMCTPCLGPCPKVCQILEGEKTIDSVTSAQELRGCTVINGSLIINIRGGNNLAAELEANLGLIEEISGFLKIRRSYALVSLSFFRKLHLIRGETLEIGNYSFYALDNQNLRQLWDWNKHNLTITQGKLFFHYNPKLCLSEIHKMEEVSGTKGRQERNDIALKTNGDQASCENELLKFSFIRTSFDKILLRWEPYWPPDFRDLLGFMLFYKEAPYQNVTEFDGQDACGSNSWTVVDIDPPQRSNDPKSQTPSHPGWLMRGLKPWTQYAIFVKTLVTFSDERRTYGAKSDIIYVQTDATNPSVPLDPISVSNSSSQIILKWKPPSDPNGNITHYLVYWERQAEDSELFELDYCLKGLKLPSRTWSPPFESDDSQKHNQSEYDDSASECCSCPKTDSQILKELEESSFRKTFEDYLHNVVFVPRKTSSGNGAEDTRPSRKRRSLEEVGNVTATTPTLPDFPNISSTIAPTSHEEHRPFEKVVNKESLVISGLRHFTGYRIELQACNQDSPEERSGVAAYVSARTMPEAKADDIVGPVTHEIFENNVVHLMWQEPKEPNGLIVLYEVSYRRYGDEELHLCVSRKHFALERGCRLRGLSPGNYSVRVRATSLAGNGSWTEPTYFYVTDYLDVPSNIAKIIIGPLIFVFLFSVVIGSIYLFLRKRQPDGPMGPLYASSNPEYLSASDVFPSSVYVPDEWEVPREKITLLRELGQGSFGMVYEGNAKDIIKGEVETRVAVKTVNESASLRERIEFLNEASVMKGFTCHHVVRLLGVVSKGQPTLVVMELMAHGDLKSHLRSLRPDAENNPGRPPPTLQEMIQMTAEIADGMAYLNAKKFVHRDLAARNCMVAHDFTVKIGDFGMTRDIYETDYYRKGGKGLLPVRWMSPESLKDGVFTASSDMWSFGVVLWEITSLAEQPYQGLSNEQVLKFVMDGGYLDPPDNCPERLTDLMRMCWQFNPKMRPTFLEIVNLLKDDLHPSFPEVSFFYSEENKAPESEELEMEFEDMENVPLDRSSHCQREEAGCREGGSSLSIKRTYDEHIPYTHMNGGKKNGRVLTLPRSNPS

[3] = system: isoproterenol-mediated lipolysis; assay: isoproterenol-mediated lipolysis in rat adipocytes (glycerol release); type: cell-based; conditions: isoproterenol 1 μM alone
Protocol: In general there are two classes of protein kinases (PKs) in mammalian tissues: (a) PKs which phosphorylate tyrosine moieties in proteins (to phosphotyrosine), and (b) PKs which phosphorylate serine and threonine moieties (to phosphoserine and phosphotreonine). […] An example for such a metabolic effect is lipolysis which depends on protein kinase A. Rat adipocytes (prepared by the method of Rodbell, 1964) were incubated with isoproterenol alone (1 μM) or isoproterenol with CBZ-DNPS-TRP-TAU (200 μM) for one hour at 37° C. The amount of glycerol released from the cells was then determined by spectroscopic procedure (Shechter, 1982).

solubility = conditions: water
[4] = system: murine T-cell lymphoma (LB3); assay: insulin-dependent proliferation of murine T-cell lymphoma (LB3), thymidine incorporation; type: cell-based; conditions: 30,000 LB3 cells; insulin or other mitogens
Protocol: LB cells were removed from the peritoneal cavity of BALB/c mice, washed and resuspended in RPMI-1640. Then a continuous line designated LB3 was established in "LB medium" (50% RPMI-1640 plus 50% DCCM-1 in 10% fetal calf serum (FCS)). The LB3 cells were incubated (37° C., 5% CO2) in microplate wells (Nunc, Roskilde, Denmark) with 0.2 ml RPMI-1640 alone and in the same medium containing insulin, fetal calf serum (FCS) or both, and different concentrations of the compound CBZ-DNPS-TRP-TAU as indicated in FIG. 3. Proliferation capacity was determined by thymidine incorporation (^3 H-TdR, 1 μCi/well, specific activity 5 Ci/mM), added to the cells 24 hours later. In a typical experiment, cpm of ^3 H-thymidine incorporated into 30,000 cells was 12-14 fold higher in the presence of insulin or other mitogens than in their absence.

[5] = system: insulin-stimulated lipogenesis in rat adipocytes; assay: insulin-stimulated lipogenesis in rat adipocytes ([U-14C]glucose incorporation); type: cell-based; conditions: insulin 100 ng/ml
Protocol: The fat pads of three rats were cut into small pieces with scissors and digested in 3 ml of Krebs-Ringer-Bicarbonate (KRB)-buffer containing 0.7% bovine serum albumin (BSA) (pH 7.4) with collagenase (1 mg/ml). […] Five ml of buffer was then added, and the cells were squeezed through a mesh screen. The cells were then allowed to stand for several minutes (in a 15 ml plastic test tube at room temperature, floating) and the buffer underneath was removed. This procedure (suspension, floating and removal of buffer underneath) was repeated three times. […] Fat cell suspensions were pre-incubated for 20 min at 37° C. with increasing concentrations of the inhibitors. Results are expressed in FIG. 2 as the percent of maximal stimulation at the indicated concentrations of inhibitors.

[6] = cell-free, 30 min, 22° C., pH 7.4, ATP 17 μM, insulin 0.1 μM, read-out: IC50 value, InsRTK-catalyzed PolyGlu4 Tyr phosphorylation

Molecule | Permeability into cell interiors (rat adipocytes) | Relative cell-free potency in inhibiting InsRTK [1] | also measured
O=C(N[C@@H](Cc1c[nH]c2ccccc12)C(=O)NCP(=O)(O)O)OCc1ccccc1 [CBZ-TRP-aminomethyl-PO3] | poor | 5% | 
O=C(N[C@@H](Cc1c(Sc2ccc([N+](=O)[O-])cc2[N+](=O)[O-])[nH]c2ccccc12)C(=O)NCS(=O)(=O)O)OCc1ccccc1 [CBZ-DNPS-TRP-aminomethyl-SO3, CBZ-DNPS-TRP-aminomethylsulfonic acid] | excellent | 90% | 
O=C(NC(Cc1ccccc1)C(=O)ON1C(=O)CCC1=O)OCc1ccccc1 (centres unmarked) [CBZ-Phe-OSU, benzyloxycarbonylphenyl-N-hydroxysuccinimide ester] |  |  | IC50 [2]: 50 µM
O=C(O)CC(NC(=O)[C@H](Cc1c(Sc2ccc([N+](=O)[O-])cc2[N+](=O)[O-])[nH]c2ccccc12)NC(=O)OCc1ccccc1)C(=O)O (some centres unmarked) [CBZ-DNPS-TRP-Aspartic Acid] | good | 5% | 
CC(=O)N[C@@H](Cc1c[nH]c2ccccc12)C(=O)NCCS(=O)(=O)O [AC-TRP-TAU, reference compound] |  |  | IC50 [1, 6]: 5000 µM
O=C(N[C@@H](Cc1c(Sc2ccccc2[N+](=O)[O-])[nH]c2ccccc12)C(=O)NCCS(=O)(=O)O)OCc1ccccc1 [CBZ-NPS-TRP-TAU] | good | 30% | IC50 [1, 6]: 550 µM
CC(C)(C)OC(=O)N[C@@H](Cc1c(Sc2ccc([N+](=O)[O-])cc2[N+](=O)[O-])[nH]c2ccccc12)C(=O)NCS(=O)(=O)O [tBoc-DNPS-TRP-aminomethyl-SO3, tBoc-DNPS-TRP-aminomethylsulfonic acid] | excellent | 80% | 
CC(=O)N[C@@H](Cc1c(Sc2ccc([N+](=O)[O-])cc2[N+](=O)[O-])[nH]c2ccccc12)C(=O)NCCS(=O)(=O)O [Acetyl-DNPS-TRP-Taurine] | poor | 80% | Permeability into cell interiors (rat adipocytes; listed as acetyl-DNPS-TRP-TAU): low permeability; inhibition of InsRTK in words ([1]; cell-free experiments): inhibits InSRTK
CC(C)(C)OC(=O)N[C@@H](Cc1c(Sc2ccc([N+](=O)[O-])cc2[N+](=O)[O-])[nH]c2ccccc12)C(=O)NCCCS(=O)(=O)O [tBoc-DNPS-TRP-aminopropyl-SO3, tBoc-DNPS-TRP-aminopropylsulfonic acid] | excellent | 90% | 
CC(C)NCC(O)c1ccc(O)c(O)c1 (centres unmarked) [Isoproterenol, isoproterenol, reference compound] |  |  | activity at 1 µM ([3]; Rattus norvegicus, Adipocyte, read-out: Percent lipolysis): 100%; Amount of glycerol released [3]: 165 nmol/3 × 10^5 cells/3 h
O=C(N[C@@H](Cc1c[nH]c2ccccc12)C(=O)NCCS(=O)(=O)O)OCc1ccccc1 [CBZ-TRP-TAU] | poor | 20% | solubility (solubility): ≤ 1300 mM; IC50 [1, 6]: 2700 µM
insulin |  |  | 3H-thymidine incorporation in presence vs absence of insulin [4]: 12-14 fold; Vinsulin (lipogenesis) [5]: 8000-10,000 cpm per 3×10^5 cells/h
O=C(N[C@@H](Cc1c[nH]c2ccccc12)C(=O)NCCCS(=O)(=O)O)OCc1ccccc1 [CBZ-TRP-β-TAU] |  |  | IC50 [1, 6]: 3500 µM
N[C@@H](Cc1c[nH]c2ccccc12)C(=O)O [L-tryptophan, reference compound] |  |  | IC50 [1]: > 30000 µM
O=C(N[C@@H](Cc1c(Sc2ccc([N+](=O)[O-])cc2[N+](=O)[O-])[nH]c2ccccc12)C(=O)NCCCS(=O)(=O)O)OCc1ccccc1 [CBZ-DNPS-TRP-aminopropyl-SO3, CBZ-DNPS-TRP-aminopropylsulfonic acid] | excellent | 70% | 
CC(C)(C)OC(=O)N[C@@H](Cc1c(Sc2ccc([N+](=O)[O-])cc2[N+](=O)[O-])[nH]c2ccccc12)C(=O)NCCS(=O)(=O)O [tBoc-DNPS-TRP-Taurine, tBoc-DNPS-TRP-aminoethylsulfonic acid] | excellent | 95% | 
CC(C)CC(NC(=O)OCc1ccccc1)C(=O)NCCS(=O)(=O)O (centres unmarked) [CBZ-leucine-Taurine, reference compound] | poor | 2% | 
